Assay results taken from article PMC9571433, “Design, Synthesis, Anti-Varicella-Zoster and Antimicrobial Activity of (Isoxazolidin-3-yl)Phosphonate Conjugates of N1-Functionalised Quinazoline-2,4-Diones” (Molecules, 2022).
In brackets after ≈: the same amount, converted by molar mass. Where two headings read alike, the source gives them in different places.

Legend:
E. faecalis ATCC 29212 = experiment: Broth microdilution MIC/MBC; conditions: Enterococcus faecalis, ATCC29212, 24 h
TK– VZV 07-1 strain = experiment: microbe, parasite or virus in culture; assay type: cell-based, varicella-zoster virus; conditions: Human alphaherpesvirus 3, HEL, read-out: Antiviral Activity EC50 TK– VZV Strain (07-1)
[1] = tested on: A. brasiliensis ATCC 16404; experiment: Broth microdilution MIC/MBC (antifungal); conditions: Aspergillus brasiliensis
TK+ VZV OKA strain = experiment: microbe, parasite or virus in culture; assay type: cell-based, varicella-zoster virus; conditions: Human alphaherpesvirus 3, HEL, read-out: Antiviral Activity EC50 TK+ VZV Strain (OKA)
B. cereus PCM 1948 = experiment: Broth microdilution MIC/MBC; conditions: Bacillus cereus
P. aeruginosa ATCC 27853 = experiment: Broth microdilution MIC/MBC; conditions: Pseudomonas aeruginosa, ATCC27853, 24 h, read-out: MIC = MBC
E. coli ATCC 25922 = experiment: Broth microdilution MIC/MBC; conditions: Escherichia coli
C. albicans ATCC 10241 = experiment: Broth microdilution MIC/MBC (antifungal); conditions: Candida albicans
[2] = tested on: human embryonic lung (HEL) cells; conditions: minimum cytotoxic concentration causing microscopically detectable alteration of cell morphology
S. aureus ATCC 2593 = experiment: Broth microdilution MIC/MBC; conditions: Staphylococcus aureus, ATCC2593, 24 h, read-out: MIC = MBC
feline herpes viruses = tested on: feline herpes viruses; set-up: method as in PMID 24906510, PMID 28763115, PMID 24219992; conditions: read-out: EC50 toward feline herpes viruses; cited from earlier work
[3] = ATCC16404, 72 h, read-out: MIC = MBC
[4] = PCM1948, 24 h, read-out: MIC = MBC
[5] = ATCC25922, 24 h, read-out: MIC = MBC

SMILES	MBC (E. faecalis ATCC 29212) [µg/mL]	MIC (E. faecalis ATCC 29212) [µg/mL]	EC50 (TK– VZV 07-1 strain) [µM]	MIC [1, 3] [µg/mL]	EC50 (TK+ VZV OKA strain) [µM]	MIC (B. cereus PCM 1948; [4]) [µg/mL]	MIC (P. aeruginosa ATCC 27853) [µg/mL]	MIC (E. coli ATCC 25922; [5]) [µg/mL]	MIC (C. albicans ATCC 10241; ATCC10241, read-out: MIC = MBC) [µg/mL]	Cytotoxicity Cell Morphology MCC [2] [μM]	MIC (S. aureus ATCC 2593) [µg/mL]	MIC (E. coli ATCC 25922; ATCC25922) [µg/mL]	MBC ([1]; ATCC16404) [µg/mL]	MIC ([1]; ATCC16404) [µg/mL]	MBC (C. albicans ATCC 10241; ATCC10241) [µg/mL]	MIC (C. albicans ATCC 10241; ATCC10241) [µg/mL]	EC50 (feline herpes viruses) [µM]	MIC (B. cereus PCM 1948; PCM1948) [µg/mL]
C=CCn1c(=O)c2ccccc2n(Cc2ccccc2F)c1=O [24b, 3-Allyl-1-(2-fluorobenzyl)quinazoline-2,4-dione]	> 5000	> 5000	64.5	5000 (≈ 16.1 mM)	> 100	2500 (≈ 8.06 mM)	2500 (≈ 8.06 mM)	2500 (≈ 8.06 mM)	5000 (≈ 16.1 mM)	>100	5000 (≈ 16.1 mM)	–	–	–	–	–	–	–
CCOP(=O)(OCC)C1CC(Cn2c(=O)c3ccccc3n(Cc3cccc(F)c3)c2=O)ON1Cc1ccccc1 (stereo not drawn) [Diethyl trans-(2-benzyl-5-((1-(3-fluorobenzyl)-2,4-dioxo-1,2-dihydroquinazolin-3(2H)-yl)methyl)isoxazolidin-3-yl)phosphonate]	> 5000	> 5000	14.5	5000 (≈ 8.6 mM)	20	2500 (≈ 4.3 mM)	2500 (≈ 4.3 mM)	1250 (≈ 2.15 mM)	2500 (≈ 4.3 mM)	20	5000 (≈ 8.6 mM)	1250 (≈ 2.15 mM)	–	–	–	–	–	–
CCOP(=O)(OCC)[C@H]1C[C@H](Cn2c(=O)c3ccccc3n(Cc3ccccc3F)c2=O)ON1C (relative stereo) [Diethyl trans-(5-((1-(2-fluorobenzyl)-2,4-dioxo-1,4-dihydroquinazolin-3(2H)-yl)methyl)-2-methylisoxazolidin-3-yl)phosphonate]	> 5000	> 5000	58.5	5000 (≈ 9.89 mM)	31.7	1250 (≈ 2.47 mM)	2500 (≈ 4.95 mM)	2500 (≈ 4.95 mM)	2500 (≈ 4.95 mM)	>100	5000 (≈ 9.89 mM)	–	–	–	–	–	–	–
CCOP(=O)(OCC)[C@H]1C[C@H](Cn2c(=O)c3ccccc3n(Cc3ccccc3)c2=O)ON1Cc1ccccc1 (relative stereo) [Diethyl trans-(2-benzyl-5-((1-benzyl-2,4-dioxo-1,4-dihydroquinazolin-3(2H)-yl)methyl)isoxazolidin-3-yl)phosphonate]	> 5000	> 5000	34.2	5000 (≈ 8.87 mM)	14.5	1250 (≈ 2.22 mM)	2500 (≈ 4.44 mM)	2500 (≈ 4.44 mM)	5000 (≈ 8.87 mM)	100	5000 (≈ 8.87 mM)	–	–	–	–	–	–	–
O=c1[nH]c(=O)n([C@H]2C[C@H](O)[C@@H](CO)O2)cc1/C=C/Br [Brivudin, reference compound]	–	–	12	–	0.026	–	–	–	–	>300	–	–	–	–	–	–	–	–
C=CCn1c(=O)c2ccccc2n(Cc2ccccc2)c1=O [24a, 3-Allyl-1-benzylquinazoline-2,4-dione]	> 5000	> 5000	100	5000 (≈ 17.1 mM)	100	5000 (≈ 17.1 mM)	2500 (≈ 8.55 mM)	2500 (≈ 8.55 mM)	5000 (≈ 17.1 mM)	>100	5000 (≈ 17.1 mM)	–	–	–	–	–	–	–
C=CCn1c(=O)c2ccccc2n(Cc2cccc(F)c2)c1=O [24c, 3-Allyl-1-(3-fluorobenzyl)quinazoline-2,4-dione]	> 5000	> 5000	> 100	5000 (≈ 16.1 mM)	> 100	5000 (≈ 16.1 mM)	2500 (≈ 8.06 mM)	1250 (≈ 4.03 mM)	2500 (≈ 8.06 mM)	>100	5000 (≈ 16.1 mM)	1250 (≈ 4.03 mM)	–	–	–	–	–	–
C=CCn1c(=O)c2ccccc2n(Cc2ccc(F)cc2)c1=O [24d, 3-Allyl-1-(4-fluorobenzyl)quinazoline-2,4-dione]	> 5000	> 5000	> 20	5000 (≈ 16.1 mM)	54.7	5000 (≈ 16.1 mM)	2500 (≈ 8.06 mM)	2500 (≈ 8.06 mM)	2500 (≈ 8.06 mM)	100	5000 (≈ 16.1 mM)	–	–	–	–	–	–	–
OC(Cn1cncn1)(Cn1cncn1)c1ccc(F)cc1F [Fluconazole, reference compound]	–	–	–	–	–	–	–	–	–	–	–	–	> 5	5 (≈ 0.0163 mM)	> 5	5 (≈ 0.0163 mM)	–	–
CCOP(=O)(OCC)C1CC(Cn2c(=O)c3ccccc3n(Cc3ccccc3)c2=O)ON1C (stereo not drawn) [cis-20a/trans-20a (10:90), Diethyl trans-5-((1-benzyl-2,4-dioxo-1,4-dihydroquinazolin-3(2H)-yl)methyl)-2-methylisoxazolidin-3-yl)phosphonate]	> 5000	> 5000	100	5000 (≈ 10.3 mM)	31.7	1250 (≈ 2.56 mM)	2500 (≈ 5.13 mM)	1250 (≈ 2.56 mM)	2500 (≈ 5.13 mM)	>100	2500 (≈ 5.13 mM)	1250 (≈ 2.56 mM)	–	–	–	–	–	–
O=C(c1ccccc1)n1c(=O)c2ccccc2n(Cc2cn(C[C@H](OCc3ccccc3)[C@H](O)P(=O)(OCc3ccccc3)OCc3ccccc3)nn2)c1=O [compound 8]	–	–	–	–	–	–	–	–	–	–	–	–	–	–	–	–	24	–
CCOP(=O)(OCC)C1CC(Cn2c(=O)c3ccccc3n(Cc3ccccc3F)c2=O)ON1Cc1ccccc1 (stereo not drawn) [Diethyl trans-(2-benzyl-5-((1-(2-fluorobenzyl)-2,4-dioxo-1,2-dihydroquinazolin-3(2H)-yl)methyl)isoxazolidin-3-yl)phosphonate]	> 5000	> 5000	27.6	5000 (≈ 8.6 mM)	12.6	1250 (≈ 2.15 mM)	2500 (≈ 4.3 mM)	2500 (≈ 4.3 mM)	2500 (≈ 4.3 mM)	100	5000 (≈ 8.6 mM)	–	–	–	–	–	–	–
CCOP(=O)(CCCn1cc(Cn2c(=O)n(C(=O)c3ccccc3)c(=O)c3ccccc32)nn1)OCC [compound 7]	–	–	–	–	–	–	–	–	–	–	–	–	–	–	–	–	4	–
NCC[C@H](O)C(=O)N[C@@H]1C[C@H](N)[C@@H](O[C@H]2O[C@H](CN)[C@@H](O)[C@H](O)[C@H]2O)[C@H](O)[C@H]1O[C@H]1O[C@H](CO)[C@@H](O)[C@H](N)[C@H]1O [Amikacin, reference compound]	–	0.625 (≈ 0.00107 mM)	–	–	–	20 (≈ 0.0342 mM)	20 (≈ 0.0342 mM)	0.625 (≈ 0.00107 mM)	–	–	1 (≈ 0.00171 mM)	–	–	–	–	–	–	20 (≈ 0.0342 mM)
CCOP(=O)(OCC)[C@H]1C[C@H](Cn2c(=O)c3ccccc3n(Cc3ccc(F)cc3)c2=O)ON1C (relative stereo) [Diethyl trans-(5-((1-(4-fluorobenzyl)-2,4-dioxo-1,4-dihydroquinazolin-3(2H)-yl)methyl)-2-methylisoxazolidin-3-yl)phosphonate]	> 5000	> 5000	38.1	5000 (≈ 9.89 mM)	58.5	1250 (≈ 2.47 mM)	2500 (≈ 4.95 mM)	2500 (≈ 4.95 mM)	2500 (≈ 4.95 mM)	>100	5000 (≈ 9.89 mM)	–	–	–	–	–	–	–
CCOP(=O)(OCC)C1CC(Cn2c(=O)c3ccccc3n(Cc3ccc(F)cc3)c2=O)ON1Cc1ccccc1 (stereo not drawn) [Diethyl trans-(2-benzyl-5-((1-(4-fluorobenzyl)-2,4-dioxo-1,2-dihydroquinazolin-3(2H)-yl)methyl)isoxazolidin-3-yl)phosphonate]	> 5000	> 5000	20	5000 (≈ 8.6 mM)	20	1250 (≈ 2.15 mM)	2500 (≈ 4.3 mM)	1250 (≈ 2.15 mM)	2500 (≈ 4.3 mM)	100	5000 (≈ 8.6 mM)	1250 (≈ 2.15 mM)	–	–	–	–	–	–
